Measurements published in US6576622B1, “Drug combination for the treatment of viral diseases” (University of Medicine & Dentistry of New Jersey, priority 1995, dated 2003).

How the values were obtained:
[1] = HPLC analysis of phosphorylated AZT metabolites in clones incubated with 3H-AZT; format: in vitro ADME
Experimental: Cell lines were incubated with ^3H-thymidine or ^3H-AZT for 4 hours. Dried methanol extracts of the clones were redissolved in 60 μof distilled water and centrifuged to remove undissolved material. Twenty microliters of the sample was injected and separated on a 10×100 mm Rainin Hydropore anion exchange column. The nucleosides were eluted from the column with a linear gradient of potassium phosphate (5 mM to 1 M, pH4.0) at a flow rate of 1 ml/min. The samples were collected (0.5 ml), mixed with 5 ml Packard scintillation fluid, and quantitated using a liquid scintillation counter. Phosphorylated derivatives of thymidine and AZT were identified with authentic standards.
Pool sizes were determined by incubation of cells with ^3H-AZT for 4 hours followed by cellular extraction and HPLC. The numbers are expressed as pmoles/10^6 cells. The numbers in parentheses represent the percentage of total radioactive species in that pool.

HIV-LacZ = format: cell-based; conditions: for cross resistance of cell lines “persistently resistant” to AZT to other nucleoside analogs: d4T at 50 μM
MLV-neo = MLV-neo colony formation in the presence of antiviral agents; format: cell-based, Moloney Leukemia virus; conditions: Hela-T4, AZT 10 uM, DDI 50 uM, DDC 10 uM, D4T 50 uM, control 9050
Experimental: Production of recombinant HIV-gpt has been described elsewhere (26). The amphotropic cell line PA317 was transfected with the recombinant murine retrovirus pLXSN (36) and was used as the source of the recombinant MLV-neo virus. Stock preparations of HIV-1IIIB were harvested from H9 cells by the “shake off method” (13). Stock virus infectivity was determined by end-point dilution in MT-2 cells (32). Virus induced cytopathic effect was scored 7 days post-infection and the TCID50 was calculated with the Reed and Muench equation (33).
To confirm this high rate of infection in the absence of genetic drug resistance, we used several other recombinant viruses and host cells. […] A high rate of infection of Jurkat cells in the presence of d4T has also been seen.
Table 5. HIV-gpt produced in COS cells by transfection with plasmids (plasmid derived) is compared with HIV-gpt produced by, rescue from H9/HIV-gpt cell line after infection with HIV-IIIB and cells infected with MLV-neo.
(§1) Table 6. Colony formation and persistent resistance after Hela-T4 cell infection with MLV-neo virus in the presence and absence of various antiviral agents.

[2] = test system: recombinant HIV, recombinant MLV, or replication-competent HIV; format: cell-based; conditions: Hela-T4, MLV-neo; for No. of persistently resistant colonies: AZT 10 uM, DDI 50 uM, DDC 10 uM, D4T 50 uM, resistant/tested; for Frequency: frequency of persistently resistant colonies
From the text: The presence of a selectable marker gene in the recombinant HIV allowed the isolation of cells infected by the recombinant viruses in the presence of d4T. These cells were characterized by infection with both additional recombinant viruses and by replication-competent viruses.
as §1

HIV-gpt = HIV-gpt colony formation after infection of HeLa-T4 cells in the presence of antiretroviral agents; format: cell-based; conditions: HeLa-T4; plasmid derived HIV-gpt (COS cells); AZT 10 μM, DDI 50 μM, D4T 50 μM; no drug control 8800
[3] = S1 (sensitive) cell line, 3H-AZT for 4 hours, HPLC
[4] = R116 (“persistently resistant”) cell line, 3H-AZT for 4 hours, HPLC

concentration in cells [1, 3] [pmoles/10^6 cells] | percentage of total radioactive species in that pool [1, 3] [%] | concentration in cells ([1]; human, 4 h) [pmoles/10^6 cells] | percentage of total radioactive species in that pool ([1]; human, 4 h) [%] | Structure (SMILES) | cross resistance of cell lines “persistently resistant” to AZT to other nucleoside analogs (HIV-LacZ) | No. of colonies (MLV-neo) | No. of persistently resistant colonies [2] | Frequency [2] | other results
0.0116 | 6.9 | 0.0193 | 9.6 | Cc1cn([C@H]2C[C@H](N=[N+]=[N-])[C@@H](COP(=O)(O)OP(=O)(O)O)O2)c(=O)[nH]c1=O [AZTDP, 3′-azido-3′-deoxythymidine diphosphate] |  |  |  |  | 
0.0158 | 9.3 | 0.0083 | 4.2 | Cc1cn([C@H]2C[C@H](N=[N+]=[N-])[C@@H](CO[P@](=O)(O)O[P@](=O)(O)OP(=O)(O)O)O2)c(=O)[nH]c1=O [AZTTP, 3′-azido-3′-deoxythymidine triphosphate] |  |  |  |  | reduction in AZTTP in R116 cells compared to S1 cells ([1]; 3H-AZT incubation): ~2 fold
 |  |  |  | Nc1ccn([C@H]2CC[C@@H](CO)O2)c(=O)n1 [DDC] | None of the “persistently resistant” cell lines were cross “resistant” | 17 | 2/17 | 2.2 × 10^−4 | 
 |  |  |  | O=c1[nH]cnc2c1ncn2[C@H]1CC[C@@H](CO)O1 [DDI] | None of the “persistently resistant” cell lines were cross “resistant” | 19 | 4/19 | 4.4 × 10^−4 | Number of “persistently resistance” colonies (HIV-LacZ; colonies from HIV-gpt infection of HeLa-T4 in presence of drug, resistant/tested): 2/16; Frequency (HIV-LacZ; frequency of persistently resistant colonies, HeLa-T4, plasmid derived HIV-gpt): 2.3 × 10^−4; Number of colonies (HIV-gpt): 16

Structure (SMILES) | concentration in cells [1, 3] [pmoles/10^6 cells] | percentage of total radioactive species in that pool [1, 3] [%] | concentration in cells ([1]; human, 4 h) [pmoles/10^6 cells] | percentage of total radioactive species in that pool ([1]; human, 4 h) [%] | cross resistance of cell lines “persistently resistant” to AZT to other nucleoside analogs (HIV-LacZ) | No. of colonies (MLV-neo) | No. of persistently resistant colonies [2] | Frequency [2] | other results
Cc1cn([C@H]2C[C@H](N=[N+]=[N-])[C@@H](COP(=O)(O)O)O2)c(=O)[nH]c1=O [AZTMP, 3′-azido-3′-deoxythymidine monophosphate] | 0.1212 | 71.6 |  |  |  |  |  |  | concentration in cells [1, 4]: 0.1575 pmoles/10^6 cells; percentage of total radioactive species in that pool [1, 4]: 78.6%
